In PMC9313812, “The Pseudo‐Natural Product Rhonin Targets RHOGDI” (Angewandte Chemie (International Ed. in English), 2022):
Entries after “also recorded” stand apart in the source; their conditions may differ. Where two headings read alike, the source gives them in different places.

Columns and labels:
C3H/10T1/2 cells = test: Osteoblast differentiation assay (ODA): purmorphamine-induced osteogenesis, alkaline phosphatase luminescence readout; format: cell-based, mouse; parameters: key to Osteogenesis IC50: Compounds are marked inactive when no inhibition was observed at the highest test concentration of 30 µM; conditions: for Inhibition of Hh-/purmorphamine-induced osteogenesis (in words): C3H/10T1/2 cells; for IC50: Mus musculus, C3H 10T1/2
Description: Supplementary Table S7. Inhibition of osteogenesis assay. C3H10T1/2 cells were incubated with 1.5 µM purmorphamine and compounds or DMSO as a control for 96 h. The activity of alkaline phosphatase was assessed by means of a luminescence readout. Values for cells, which were treated with DMSO and purmorphamine, were set to 100% and data were measured in […]
concentration of 30 µM. All data are mean values of three independent experiments (n = 3) ± […]
Compound Osteogenesis IC50
(1 picture or pasted object on this page, not shown here)
NIH/3T3 cells were obtained from DSMZ, Germany (DSMZ ACC 59) and were cultured in DMEM (high glucose) supplemented with 10% heat-inactivated FCS, 2 mM L -glutamine and 1 mM sodium pyruvate. Shh -LIGHT2 cells (NIH/3T3 cells stably transfected with a Gli-responsive firefly luciferase reporter plasmid and a pRL-TK constituitive Renilla luciferase expression vector)[4] were cultured in the same culturing medium supplemented with 400 μg ml −1 G418 and 150 μg ml −1 Zeocin as selecting agents. The murine osteoblasts C3H/10T1/2 (ATCC CCL-226) were obtained from ATCC, USA and were cultured in DMEM (high glucose) supplemented with 10% heat-inactivated FCS, 6 mM L -glutamine, 1 mM sodium pyruvate. HEK293T cells (ATCC, England) were grown in DMEM containing 10% FBS, 100 U ml −1 penicillin and 0.1 mg ml −1 streptomycin. All cell lines were maintained at 37 °C and 5% CO 2 in a humidified atmosphere. All the cell lines were regularly assayed for mycoplasma and were confirmed to be mycoplasma-free. Transfection of DNA constructs and siRNAs were performed using FuGENE HD (Promega), Lipofectamine® LTX (Invitrogen) and DharmaFECT™ (GE Healthcare) transfection reagent according to the manufacturer’s […]
Osteoblast differentiation assay
The osteoblast differentiation assay was performed by the Compound Management and Screening Center (COMAS) in Dortmund, Germany. C3H/10T1/2 cells were seeded (800 per well) in white 384-well plates or (6000 per well) in 96-well plates. After incubation for 16 h, compounds or DMSO were added to the cells using the acoustic nanoliter dispenser ECHO 520 (Labcyte) and osteogenesis was induced with 1.5 µM purmorphamine. Plates were incubated for 96 h at 37 °C and 5% CO2. Alkaline phosphatase activity was measured by replacing the medium with osteogenesis-lysis buffer (lysis buffer: 100 mM Tris pH 9.5, 250 mM NaCl, 25 mM MgCl2, 1% Triton X-100, sterile filtered) containing 1:100 chemiluminescent substrate CDP-Star® (Promega, 384-well plates: 35 µL, 96-well plates: 50 µL) for one hour in the dark at 25 °C. In 384-well plates, the luminescence was monitored using the Paradigm plate reader (Molecular Devices, USA), whereas Spark plate reader (Tecan, Austria) was used to measure luminescence in 96-well plates. Dose-response analyses were performed for all hit compounds […]
using a three-fold dilution series starting from a concentration of 30 μM. Half-maximal inhibitory concentrations (IC50) were calculated using the Quattro software suite (Quattro Research, Planegg, Germany) or GraphPad Prism 7 (GraphPad, USA).
The effect of test compounds on the viability of C3H/10T1/2 cells was determined by CellTiter-Glo Luminescence cell viability assay (Promega). Cells were treated as described for the osteogenesis assay prior to addition of the CellTiter-Glo® reagent according to manufacturer’s protocol. Compounds causing at least a 50% reduction in the osteogenesis assay and retaining cell viability of at least 80% were considered as hits. Dose-response analyses were performed for all hit compounds using a three-fold dilution series starting from a concentration of 30 μM. Half-maximal inhibitory concentrations (IC50) were calculated using the Quattro software suite (Quattro Research GmbH). […]

[1] = biological target: T1, RHOGDI1-mediated extraction of RAC1 (Homo sapiens, UniProt P52565); test: Liposome sedimentation assay: displacement of prenylated GDP-bound RAC1 from liposomes by GST-RHOGDI1; format: biochemical; conditions: 50 μM compound
T1 construct: made in house; host or cells: RHOGDI1: E. coli; prenylated RAC1: insect cells (TNAO38)
T1 sequence (P52565 1-204): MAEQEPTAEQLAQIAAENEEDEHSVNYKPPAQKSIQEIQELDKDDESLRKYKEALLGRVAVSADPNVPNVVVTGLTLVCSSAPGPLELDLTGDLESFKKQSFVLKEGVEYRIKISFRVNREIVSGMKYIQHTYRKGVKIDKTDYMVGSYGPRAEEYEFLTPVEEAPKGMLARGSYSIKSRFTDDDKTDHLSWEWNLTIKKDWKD
Description: Liposome sedimentation assay
Liposomes were prepared by self-assembly of the lipids (500 μg) containing 20% (w/w) phosphatidylethanolamine, 45% (w/w) phosphatidylcholine, 20% (w/w) phosphatidylserine, 10% (w/w) cholesterol, and 5% (w/w) phosphatidylinositol 4,5-bisphosphate. Liposome assays were performed by mixing, sonicating (20 s with minimal power, 50% off and 50% on) and extruding ([…] filter) the lipids in 300 µl of a buffer, containing 20 mM HEPES-NaOH pH 7.4, 50 mM NaCl, 3 mM DTT, 5 mM MgCl2. 1 µM GerGer-RAC1-GDP was added to the liposomes and incubated for 20 min on ice. 1.5 µM GST‐RHOGDI-1 and the compounds or DMSO were added to the liposome-GerGer-RAC1-GDP complex prior to incubation on ice for 30 min. The samples were centrifuged at 20,000 x g for 30 min at 4 °C. The resulting pellet and supernatant fractions were collected and analyzed by immunoblotting. 10 µl of each sample were loaded on a SDS-PAGE gel for Western blotting. Specific antibodies were used to visualize RAC1, CDC42 and RHOA.
10 µM of GerGer-RAC1-GDP was added to liposomes suspended in flotation assay buffer containing 20 mM HEPES-NaOH pH 7.4, 50 mM M NaCl, 3 mM DTT, 5 mM MgCl2, and incubated for 20 min on ice. The liposomes were prepared by using self-assembling the lipids (500 μg lipids in 300 µl buffer), containing 15% (w/w) phosphatidylethanolamine, 0.5% (w/w) NBD-PE (N-(7-nitrobenz-2-oxa-1,3-diazol-4-yl)-1,2-dihexadecanoyl-sn-glycero-3-phosphoethanolamine, triethylammonium salt), 45% (w/w) phosphatidylcholine, 20% (w/w) phosphatidylserine, 10% (w/w)cholesterol, and 5% (w/w) phosphatidylinositol 4,5-bisphosphate. 15 µM of GST‐RHOGDI-1 and compounds or DMSO was added to liposome-GerGer-RAC1-GDP complex and samples were further incubated on ice for 30 min. The samples were added to 30% (w/v) sucrose solution. […]
The resulting samples were centrifuged at 140000 x g for 1 h at 4 °C. The upper liposome‐ containing phase (detected by fluorescent NDB‐PE) was collected and analyzed by […]

[2] = Table S9, purmorphamine-induced, mean, n=3 ± SD, read-out: ODA IC50 ± SD

Osteogenesis IC50 (C3H/10T1/2 cells; Table S7, 1.5 µM purmorphamine, 96 h, mean ± SD, n=3, highest test concentration 30 µM) | Inhibition of RHOGDI1-mediated extraction of RAC1 from liposomes (in words) [1] | IC50 (C3H/10T1/2 cells; Table S7, 1.5 µM purmorphamine, 96 h, mean ± SD, n=3, highest test concentration 30 µM, read-out: Osteogenesis IC50) | Structure (SMILES) | Inhibition of Hh-/purmorphamine-induced osteogenesis (in words) (C3H/10T1/2 cells) | IC50 (C3H/10T1/2 cells; [2])
inactive | did not inhibit extraction of RAC1 | – | COC(=O)C1(CCC(=O)c2ccc(F)cc2)N=C(c2ccc(Br)cc2)C2C(=O)N(C)C(=O)C21 (stereo not drawn) [7d] | abolished activity; also recorded: did not inhibit osteogenesis | –
– | inhibits the extraction of RAC1 | 1500 ± 200 nM | COC(=O)C1(C(CC(=O)c2ccccc2)c2ccccc2)N=C(c2ccc(Br)cc2)C2C(=O)N(C)C(=O)C21 (stereo not drawn) [7a] | – | 1300 ± 300 nM

Structure (SMILES) | Osteogenesis IC50 (C3H/10T1/2 cells; Table S7, 1.5 µM purmorphamine, 96 h, mean ± SD, n=3, highest test concentration 30 µM) | Inhibition of RHOGDI1-mediated extraction of RAC1 from liposomes (in words) [1] | IC50 (C3H/10T1/2 cells; Table S7, 1.5 µM purmorphamine, 96 h, mean ± SD, n=3, highest test concentration 30 µM, read-out: Osteogenesis IC50) | Inhibition of Hh-/purmorphamine-induced osteogenesis (in words) (C3H/10T1/2 cells) | IC50 (C3H/10T1/2 cells; [2])
COC(=O)C1(C(CC(=O)c2cccnc2)c2ccccc2)N=C(c2ccc(Br)cc2)C2C(=O)N(C)C(=O)C21 (stereo not drawn) [7l] | – | inhibited | – | most potently inhibited | 1520 ± 220 nM
